Consider 5 molecules from patent US9456992B2 (XSPRAY MICROPARTICLES AB, priority 2012, dated 2016).

Where a name gives a salt, the structure may show the parent alone.

The nature of data set [1]: Dissolution rate measurement in sink conditions, flow through cell system, FaSSIF, 37° C. The format is physicochemical. As to conditions: sink condition in FaSSIF; for Initial Dissolution Rate: initial slope of accumulated % solubilized vs time, 0 to 10 minutes, 37° C. The method, then:
Typically, said dissolution rate is measured by a flow through cell system in sink conditions, e.g., according to the US Pharmacopea (USP4). Dissolution measurement in sink conditions of hybrid nanoparticles may be measured in a method consisting of adding the wished amount of powder into a flow through cell system (SOTAX, Allschwill, Switzerland), mounting the cell onto its apparatus and then pumping the appropriate medium (typically FaSSIF, FeSSIF, SGF) through the powder. The temperature of the apparatus is typically set to 37° C. The amount of powder added into the cell depends on drug load of the powder: The exact amount of powder can be calculated from results obtained from drug load analysis of the powders. The PKI may be added into the flow through cell and a flow rate between 5 and 25 ml medium/min is pumped through the powder. […] Samples are typically taken after 0, 0.5, 1, 1.5, 2, 3, 4, 5, 6, 7, 8, 9, 10, 15, 20, 25, 30, 35 and 40 min from the moment the medium comes out from the flow through cell. The accumulated % solubilized of the amount of active substance added into the flow through cell can be calculated and plotted against time (min). The initial slope (“initial dissolution rate”, representing 0-10 minutes) of the graph may be estimated and taken as the dissolution rate of the material in sink condition at 37° C. in the given dissolution medium.
Typically, said dissolution rate is measured by a flow through cell system, for instance in sink conditions. […] The temperature of the apparatus is typically set to 37° C. The amount of powder added into the cell depends on drug load of the powder: The exact amount of powder can be calculated from results obtained from drug load analysis of the powders. The PKI may be added into the flow through cell and a flow rate between 5 and 25 ml medium/min is pumped through the powder. […] Samples are typically taken after 0, 0.5, 1, 1.5, 2, 3, 4, 5, 6, 7, 8, 9, 10, 15, 20, 25, 30, 35 and 40 min from the moment the medium comes out from the flow through cell. The accumulated % solubilized of the amount of active substance added into the flow through cell, can be calculated and plotted against time (min). The initial slope (“initial dissolution rate”, representing 0-10 minutes) of the graph can be estimated and taken as the dissolution rate of the material in sink condition at 37° C. in the given dissolution medium.
Dissolution measurement in sink conditions of compositions of the invention were measured in a method consisting of adding the wished amount of powder into a flow through cell system (SOTAX, Allschwill, Switzerland), mounting the cell onto its apparatus and then pumping the appropriate medium (typically FaSSIF, FeSSIF, SGF) through the powder. The temperature of the apparatus was set to 37° C. The amount of powder added into the cell depends on drug load of the powder: The exact amount of powder was calculated from results obtained from drug load analysis of the powders.
Typically, 3.5 to 7 mg PKI was added into the flow through cell and a flow rate between 8 and 16 ml medium/min (preferably about 8 ml medium/min) was pumped through the powder. One ml samples of the medium passing through the cell were collected at predetermined times. […] Samples were taken after 0, 0.5, 1, 1.5, 2, 3, 4, 5, 6, 7, 8, 9, 10, 15, 20, 25, 30, 35 and 40 min from the moment the medium comes out from the flow through cell. The accumulated % solubilized of the amount of active substance added into the flow through cell was calculated and plotted against time (min). The initial slope (“initial dissolution rate”) of the graph was estimated, as measured during 0 to 10 minutes, and taken as the dissolution rate of the material in sink condition at 37° C. in the given dissolution medium.

A short description of data set [2]: Dissolution measurement assay (apparent solubility, non-sink) in FeSSIF solution (pH 5). Format: physicochemical.
Procedure: The medium was prepared in accordance with the manufacturer's instructions. The amount of powder added depends on the wished “total PKI concentration”. […] For other experiments, the drug load was first estimated by HPLC and the amount of powder to obtain the drug concentration was calculated.
Typically, the powder was added in a 8 mL glass bottle and 7 mL of solution was added (typically FaSSIF, FeSSIF or SGF). The glass bottle was put on a shaker (approximately 1 rotation per minute) for dissolution. Samples of 500 μl where taken after different times, and subsequently centrifuged at approximately 15000 g for 3 minutes. The resulting supernatant was then analyzed by HPLC (C18 column Eclipse, 4.6 mm×15 cm, 1 mL/min, detection at 254-400 nM. Generally samples were taken after 5, 30 and 90 min and eventually 150 min.
The experiments were carried out by measuring concentration of solubilized PKI (mg/L) after 5, 30 and 90 minutes dissolution in a solution at about pH 6.5, namely FaSSIF (Fasted State Simulated Intestinal Fluid). Further, experiments were carried out in an alternative solution at about pH 5, namely FeSSIF (Fed State Simulated Intestinal Fluid). Samples of the solution were taken at various time intervals and the amount of protein kinase inhibitor was measured by the dissolution measurement assay described above.
The experiments were carried out by measuring concentration of PKI (mg/L) after 5, 30 and 90 minutes dissolution in a solution at about pH 6.5, namely FaSSIF (Fasted State Simulated Intestinal Fluid). Further, experiments were carried out in an alternative solution at about pH 5, namely FeSSIF (Fed State Simulated Intestinal Fluid). Samples of the solution were taken at various time intervals and the amount of PKI was measured by the dissolution measurement assay described above.

Regarding `CNC(=O)c1cc(Oc2ccc(NC(=O)Nc3ccc(Cl)c(C(F)(F)F)c3)cc2)ccn1.Cc1ccc(S(=O)(=O)O)cc1` [Experiment 560], the “Accumulated % of solubilized of remaining active substance at a given time (min)” value is 0.2% in data set [1] (0 min); 0.4% in data set [1] (0.5 min); 0.7% in data set [1] (1 min); 1.0% in data set [1] (1.5 min); 1.3% in data set [1] (2 min); 1.8% in data set [1] (3 min). Moreover, the “Accumulated % of solubilized of remaining active substance at a given time (min)” value came to 2.2% in data set [1] (4 min); 2.6% in data set [1] (5 min); 3.0% in data set [1] (6 min); 3.4% in data set [1] (7 min); 3.8% in data set [1] (8 min); 4.2% in data set [1] (9 min). Besides, the “Accumulated % of solubilized of remaining active substance at a given time (min)” value in data set [1] (10 min) stood at 4.6%; in data set [1] (20 min), 8.8%.

On to `Cc1cn(-c2cc(NC(=O)c3ccc(C)c(Nc4nccc(-c5cccnc5)n4)c3)cc(C(F)(F)F)c2)cn1` [Exp 41, Nilotinib HCl], for which the “% solubilized 30 min.” value in data set [2] (nilotinib HCl, after 30 minutes dissolution) worked out at 0.18%.

As to `Cc1cn(-c2cc(NC(=O)c3ccc(C)c(Nc4nccc(-c5cccnc5)n4)c3)cc(C(F)(F)F)c2)cn1` [Exp 500, nilotinib HCl], the “Initial Dissolution Rate” value in data set [1] was found to be 0.27.

In the case of `C#Cc1cccc(Nc2ncnc3cc(OCCOC)c(OCCOC)cc23)c1` [Exp 69, Erlotinib HCl], the “% solubilized 30 min.” value in data set [2] (erlotinib HCl, 30 min dissolution) worked out at 19.0%. Moreover, in data set [2] (erlotinib HCl, AUC during 90 min dissolution), the “AUC/ 90 min.” value was determined as 16303 Mg/min/L.

Turning to `C[C@@H](Oc1cc(-c2cnn(C3CCNCC3)c2)cnc1N)c1c(Cl)ccc(F)c1Cl` [Exp 570, crizotinib], in data set [1], the “Initial Dissolution Rate” value was found to be 6.6.
